Experimental data from a melting point compilation (Tetko et al.; mined from patent text by program, amines drawn as free bases though some values may be those of a salt).

**Q.** For `CCOC(=O)C(=CNc1ccnc(-c2ccncc2)n1)C(=O)OCC`, which melting point is on record?
**A.** The melting point was 143 to 145 °C.

**Q.** For `CS(=O)(=O)c1sccc1S(N)(=O)=O`, which melting point is on record?
**A.** Its melting point is 242 to 244 °C.

**Q.** Which melting point does the source give for `CCCCCCCSC[C@H](N[C@@H](C)C(=O)N1CCC[C@H]1C(=O)O)C(=O)O` here?
**A.** The melting point was 75 to 83 °C.

**Q.** With `Nc1cc(Oc2ccc3c(C(=O)O)cccc3c2)ncn1` as the compound, how does the melting point read?
**A.** The melting point was 288 to 290 °C.

**Q.** With `CCC(OCc1ccc(-c2ccc(Cl)cc2)cc1)(C(=O)O)c1ccccc1` (configuration not stated) as the compound, how does the melting point read?
**A.** The melting point was 128 to 130 °C.

**Q.** With `CN1CCN(c2cc(Cl)cc3c2c(=O)n(Cc2ccccc2Br)c(=O)n3Cc2ccccc2)CC1` as the compound, how does the melting point read?
**A.** The melting point was 91 to 93 °C.

**Q.** With `CCc1oc2ccc(C)cc2c1C(=O)c1ccc(Cl)c(S(N)(=O)=O)c1` as the compound, how does the melting point read?
**A.** Its melting point is 147 to 150 °C.

**Q.** With `N#CCCOC(=O)NC(=O)C(c1ccccc1)c1ccccc1` as the compound, how does the melting point read?
**A.** The melting point was 113 °C.

**Q.** For `COC(O)c1ccc2c(c1)C(C(Cl)(Cl)Cl)OC(C(Cl)(Cl)Cl)O2` (configuration not stated), which melting point is on record?
**A.** Its melting point is 123 to 125 °C.

**Q.** For `CCN(CC)CCCC1CCCN(C(=O)N2c3ccccc3NC(=O)c3csc(C)c32)C1` (configuration not stated), which melting point is on record?
**A.** Its melting point is 136 to 138 °C.

**Q.** With `CN(C)c1ccc(Cl)cc1[N+](=O)[O-]` as the compound, how does the melting point read?
**A.** Its melting point is 54 to 55 °C.

**Q.** Which melting point does the source give for `COC(=O)c1cc2cc(OC)c(OC)cc2c(-c2cccnc2)c1C(=O)OC` here?
**A.** The melting point was 95 to 96 °C.

**Q.** For `COCC(=O)N(c1c(C)ccc2ccccc12)C(CCO)C(=O)OC` (configuration not stated), which melting point is on record?
**A.** The melting point was 132 to 137 °C.

**Q.** For `Cc1ccc(COC2C(Sc3ccccc3)OC(C)C(OC(=O)c3ccccc3)C2OC(=O)c2ccccc2)cc1` (configuration not stated), which melting point is on record?
**A.** The melting point was 81 to 83 °C.

**Q.** With `CCN(CC)CCCNc1ncc2cc(-c3c(Cl)cccc3Cl)c(NC(=O)NC(C)C)nc2n1` as the compound, how does the melting point read?
**A.** Its melting point is 88 to 100 °C.

**Q.** For `CC(=O)c1ccc(NC(=O)c2ccc(-c3ccccc3)cc2)cc1`, which melting point is on record?
**A.** Its melting point is 283 to 285 °C.

**Q.** With `COCCCNC(N)=O` as the compound, how does the melting point read?
**A.** Its melting point is 128 to 130 °C.

**Q.** With `O=C(Cn1c(=O)oc2ccc(Cl)cc21)c1ccc(C(F)(F)F)cc1` as the compound, how does the melting point read?
**A.** The melting point was 188 to 189 °C.

**Q.** With `C[C@@](N)(Cc1ccc(OC(F)(F)F)cc1)C(=O)Nc1cc(Cl)cc(Cl)c1` as the compound, how does the melting point read?
**A.** Its melting point is greater than 200 °C.

**Q.** Which melting point does the source give for `N#CCc1cc(Cl)cc(Cl)c1` here?
**A.** The melting point was 31 to 32 °C.

**Q.** With `COc1ccc(N(C)CCCOc2ccc3ccccc3c2)cc1` as the compound, how does the melting point read?
**A.** Its melting point is 112 °C.

**Q.** With `CCCCCOc1nc(Cl)nc2ccccc12` as the compound, how does the melting point read?
**A.** Its melting point is 32 to 34 °C.

**Q.** Which melting point does the source give for `Fc1ccc2[nH]cc(CC3CCN(CCOc4ccc5c(c4)CCC5)CC3)c2c1` here?
**A.** The melting point was 150 to 152 °C.

**Q.** With `COC(=O)C(=NOCc1ccccc1)C(C)=O` as the compound, how does the melting point read?
**A.** Its melting point is 35 to 36 °C.

**Q.** With `CCNC(=O)CC1CN=C(c2cc3cc(Oc4ccc(S(C)(=O)=O)nc4)cc(OC)c3[nH]2)S1` (configuration not stated) as the compound, how does the melting point read?
**A.** The melting point was 236 to 237 °C.

**Q.** For `CC(=O)Oc1cccc(C=Cc2ccc3ccccc3n2)c1`, which melting point is on record?
**A.** Its melting point is 86 to 87 °C.

**Q.** With `COc1ccc(O)c(CNc2cccs2)c1` as the compound, how does the melting point read?
**A.** Its melting point is 109 to 110 °C.

**Q.** With `COc1cc2cc(C(=O)N3CC(CCl)c4c3cc(N)c3ccccc43)[nH]c2cc1OCCN(C)C` (configuration not stated) as the compound, how does the melting point read?
**A.** The melting point was 130 to 133 °C.

**Q.** For `CC1(C)N=C(n2ccccc2=O)c2cc(C#N)ccc2O1`, which melting point is on record?
**A.** Its melting point is 115 to 116 °C.

**Q.** For `CC(C)(C)OC(=O)N[C@@H]1C[C@H](C(=O)O)Nc2cc(Cl)cc(Cl)c21` (relative stereo), which melting point is on record?
**A.** Its melting point is 186 to 188 °C.

**Q.** For `CCN1CN=C2SCC(O)(c3ccc(Br)cc3)N2C1` (configuration not stated), which melting point is on record?
**A.** Its melting point is 132 to 134 °C.

**Q.** For `CNc1nc(N)nc2c1ncn2C1CC(F)C(CO)O1` (configuration not stated), which melting point is on record?
**A.** Its melting point is 111 °C.

**Q.** For `CN1CCN(c2ccc(Nc3nc(N)c(C(=O)c4c(Cl)cc(C(F)(F)F)cc4Cl)s3)cc2)CC1`, which melting point is on record?
**A.** The melting point was 239 to 240 °C.

**Q.** For `O=c1cc(O)c2ccc(OCC(O)COc3ccccc3)cc2o1` (configuration not stated), which melting point is on record?
**A.** The melting point was 145 to 175 °C.

**Q.** Which melting point does the source give for `CCOC(=O)c1cnc(Nc2ccccc2O)[nH]c1=O` here?
**A.** Its melting point is 289 to 291 °C.

**Q.** For `O=c1cnc2cc(Cl)cc(Cl)c2[nH]1`, which melting point is on record?
**A.** The melting point was 228 to 229 °C.

**Q.** Which melting point does the source give for `CCCCn1c(=O)c2cc(OC)c(OC)cc2c2nnc3cc4c(cc3c21)OCO4` here?
**A.** The melting point was 299 °C.

**Q.** Which melting point does the source give for `O=C(O)COc1cc(Cl)ccc1C(=O)NCc1c(F)cccc1F` here?
**A.** Its melting point is 188 to 190 °C.

**Q.** With `COc1ccccc1COc1ccc(S(=O)(=O)c2ccc(C)nc2Nc2ccc(S(C)(=O)=O)cc2Cl)cc1` as the compound, how does the melting point read?
**A.** The melting point was 100 to 102 °C.

**Q.** For `O=C1CN2Cc3cc(OCCCCCCO)ccc3N=C2N1`, which melting point is on record?
**A.** The melting point was 236 to 237 °C.

**Q.** For `COC(=O)C(c1ccc(Cl)cc1)c1c(Cl)cc(-n2ncc(=O)n(C)c2=O)cc1Cl` (configuration not stated), which melting point is on record?
**A.** The melting point was 173 °C.

**Q.** For `Cc1cc(-c2nc3cccnn3c2-c2ccnc(NC(=O)NCC(F)(F)F)c2)ccc1F`, which melting point is on record?
**A.** The melting point was 229 to 230 °C.

**Q.** Which melting point does the source give for `CCCNCc1ccc(-c2cc3ncnc(Nc4ccc5[nH]ccc5c4)c3s2)cc1` here?
**A.** The melting point was 190 to 205 °C.

**Q.** Which melting point does the source give for `CC(C)(C)OC(=O)Nc1ccc2c(c1)OCC(=O)N2` here?
**A.** Its melting point is 200 to 203 °C.

**Q.** For `CC(C)CC(C#N)NC(=O)C1CCCCC1NC(=O)OCc1ccccc1` (configuration not stated), which melting point is on record?
**A.** Its melting point is 104 to 106 °C.

**Q.** For `CC(=O)Cc1ccc2c(c1)Cc1cccnc1O2`, which melting point is on record?
**A.** The melting point was 124 to 125 °C.

**Q.** Which melting point does the source give for `CCOC(=O)C(C)=CNc1ccc2ccccc2n1` here?
**A.** The melting point was 164 to 165 °C.

**Q.** With `O=C1COc2ccc(C3=Cc4ccc(NCCCO)cc4OC3c3ccccc3)cc2N1` (configuration not stated) as the compound, how does the melting point read?
**A.** The melting point was 215 to 217 °C.

**Q.** With `COC(=O)CCC(=O)c1ccc(CCNC(C)=O)cc1` as the compound, how does the melting point read?
**A.** Its melting point is 120 °C.

**Q.** For `CS(=O)(=O)NC(=O)NCCCc1ccc2c(NC(=O)CC3CCCCC3)c(Cl)ccc2n1`, which melting point is on record?
**A.** Its melting point is 151 to 152 °C.

**Q.** For `O=C1CN(c2ccccc2)C(=O)N1C(=O)c1cccc(Oc2ccccc2)c1`, which melting point is on record?
**A.** The melting point was 157 to 158 °C.

**Q.** For `COC(=O)c1cncc(NC(=O)C(C)CSC(C)=O)c1` (configuration not stated), which melting point is on record?
**A.** The melting point was 88 to 90 °C.

**Q.** Which melting point does the source give for `COCc1ncccc1CN(CCn1ccc2oc(C)cc2c1=O)Cc1ccc2c(c1)N(C)C(=O)C(C)(C)C(=O)N2C1CC1` here?
**A.** The melting point was 146 to 148 °C.

**Q.** With `O=C(Oc1c(Br)c(Br)c(Br)c(Br)c1Br)c1ccccc1CCl` as the compound, how does the melting point read?
**A.** The melting point was 201 to 205 °C.

**Q.** Which melting point does the source give for `O=C1c2ccc(N3CCCCC3)c3cc(Br)cc(c23)C(=O)N1O` here?
**A.** Its melting point is 134 to 136 °C.

**Q.** With `COc1cc(OC)c2c(=O)[nH]c(-c3cc(C)c(OCCN4C(=O)CN(C(C)C)C4=O)c(C)c3)nc2c1` as the compound, how does the melting point read?
**A.** Its melting point is 219 to 221 °C.

**Q.** With `O=c1[nH]c2ccccc2c(=O)c2ccccc12` as the compound, how does the melting point read?
**A.** The melting point was 245 to 248 °C.

**Q.** With `CCCOc1ccc(OC)cc1C1=NC(=O)C2=NC=NC2=N1` as the compound, how does the melting point read?
**A.** Its melting point is 233 to 234 °C.

**Q.** For `O=C1NC(=O)C(Cc2ccc(N3CCC(NC[C@H](O)c4cccc(Cl)c4)CC3)cc2)S1` (some centres not stated), which melting point is on record?
**A.** Its melting point is 195 to 198 °C.

**Q.** With `COc1cc2c(cc1OC)/C(=N/OCc1ccc3nonc3c1)CC2` as the compound, how does the melting point read?
**A.** Its melting point is 163 to 166 °C.

**Q.** Which melting point does the source give for `CN1C(=O)[C@H](NC(=O)/C=C/c2c(Cl)cccc2Cl)N=C(c2ccccc2)c2ccccc21` here?
**A.** Its melting point is 121 to 124 °C.

**Q.** For `CC(=O)OC(=CC(=O)O)CC(=O)Nc1cccc(F)c1`, which melting point is on record?
**A.** Its melting point is 117 °C.

**Q.** Which melting point does the source give for `CC(C)n1nc(-c2sc(NC(=O)c3ccc(F)cc3)nc2-c2ccccc2)ccc1=O` here?
**A.** Its melting point is 225 to 226 °C.

**Q.** With `COc1cc(NC(C)=O)c(Cl)c(C(F)(F)F)c1Cl` as the compound, how does the melting point read?
**A.** The melting point was 143 to 144 °C.

**Q.** Which melting point does the source give for `CCOC(=O)C1=C(C)NC(C)=C(C(=O)OCC)C1c1ccccc1/C=C(\C)C(=O)OCC` here?
**A.** The melting point was 105 to 106 °C.

**Q.** With `Cc1ccc(Sc2nc(-c3ccccc3)cnc2N)cc1` as the compound, how does the melting point read?
**A.** The melting point was 120 to 122 °C.

**Q.** For `CC1=C(C(=O)OC(C)C)C(c2cccc([N+](=O)[O-])c2)N(C(N)=O)C(=O)N1` (configuration not stated), which melting point is on record?
**A.** Its melting point is 160 to 161 °C.

**Q.** For `COc1ccc(C#N)cc1/C=C/C(=O)O`, which melting point is on record?
**A.** Its melting point is 252 to 253 °C.

**Q.** For `Cc1c(SCCCCS)ccnc1CO`, which melting point is on record?
**A.** The melting point was 58 to 63 °C.

**Q.** Which melting point does the source give for `CCCCn1c(=O)c2c(ncn2S(=O)(=O)c2cccs2)n(CCCC)c1=O` here?
**A.** Its melting point is 145 to 146 °C.

**Q.** Which melting point does the source give for `CCCCCCCCCCCCCCCCOCC(O)CN1CCC(C#N)(c2ccccc2)CC1` (configuration not stated) here?
**A.** The melting point was 69 to 70 °C.

**Q.** With `O=C(CCl)NCc1c(O)c(I)cc2c1CCCC2` as the compound, how does the melting point read?
**A.** Its melting point is 119 to 125 °C.
